In patent publication US20030092691A1 (priority 2001, published 2003):

Experiment: Study of solubility of micronized progesterone in various oils (concentration at saturation)
Type: physicochemical
Settings: in refined olive oil; one hour stirring at room temperature, filtered 0.45 μm
Protocol: The saturated solutions were then prepared as follows: The saturated solutions in each oil were maintained for one hour with stirring at room temperature, and were then filtered on a nylon filter syringe with a diameter of 25 mm, at 0.45 μm.

CC(=O)[C@H]1CC[C@H]2[C@@H]3CCC4=CC(=O)CC[C@]4(C)[C@H]3CC[C@]12C [Micronized progesterone, progesterone]
CONCENTRATION AT SATURATION: 19560 µg/mL
